Reference: PMC6858373 (Scientific Reports, 2019)
Counter-ions that a name gives are not always drawn. Like-named read-outs stand apart in the source and are kept apart here. *1 amine or outer side, *2 acyl side, *3 side chain or, on linkers, in order; H or OH if unused. Where a SMILES comes first, the peptide text is derived from it. Bridges are numbered along the chain shown (N, C = ends). Roman numbers before positions name the chains, in order. [ ]: non-standard residue; d: D form. Actinocin(9to1) = Cc1c2oc3c(C)ccc(C(=O)[*:1])c3nc-2c(C(=O)[*:2])c(N)c1=O; NMeV = CN[C@H](C(=O)O)C(C)C; Sar = CNCC(=O)O

Columns and labels:
[1] = target: full-length P. pyralis luciferase (Photinus pyralis, UniProt P08659, K549A/L550V/N119G/N50D/S548I); format: cell-based
[2] = target: T1, FGF14:Nav1.6 C-tail complex (Homo sapiens, UniProt Q92915+Q9UQD0); experiment: Split-luciferase complementation assay (LCA) in Clone V double stable HEK293 cells; format: cell-based
T1 construct: polymerase chain reaction (PCR) amplification of the FGF14 open reading frame (nt 1–855); C-terminal fragment of Nav1.6 (amino acids 1763–1976) fused with CD4ΔC-tail (amino acids 1–395); expressed in transfected cells

[3] = tested on: Clone V cells
[4] = CC_NCI screening, normalized to on-plate 0.3% DMSO controls
[5] = CC_NCI screening, biological replicate Set 1, normalized to on-plate 0.3% DMSO controls
[6] = CC_NCI screening, biological replicate Set 1, normalized to on-plate 0.3% DMSO controls (n=16 per plate)
[7] = CC_NCI screening, biological replicate Set 2, normalized to on-plate 0.3% DMSO controls
[8] = CC_NCI screening, biological replicate Set 2, normalized to on-plate 0.3% DMSO controls (n=16 per plate)
[9] = average of Set 1 and Set 2, normalized to 0.3% DMSO controls
[10] = CC_NCI screening, full-length luciferase counter-screen luminescence, normalized to on-plate 0.3% DMSO controls
[11] = CC_NCI screening, full-length luciferase counter-screen, normalized to on-plate 0.3% DMSO controls
[12] = CC_NCI screening, LCA luminescence, biological replicate Set 1, normalized to on-plate 0.3% DMSO controls (n=16 per plate)
[13] = CC_NCI screening, LCA luminescence, biological replicate Set 2, normalized to on-plate 0.3% DMSO controls (n=16 per plate)
[14] = CC_NCI screening, LCA, biological replicate Set 1, normalized to on-plate 0.3% DMSO controls
[15] = CC_NCI screening, LCA, biological replicate Set 2, normalized to on-plate 0.3% DMSO controls
[16] = CC_NCI screening, average of Set 1 and Set 2, normalized to 0.3% DMSO controls

Chain of full-length P. pyralis luciferase (P08659 whole entry N50D/N119G/S548I/K549A/L550V, looked up): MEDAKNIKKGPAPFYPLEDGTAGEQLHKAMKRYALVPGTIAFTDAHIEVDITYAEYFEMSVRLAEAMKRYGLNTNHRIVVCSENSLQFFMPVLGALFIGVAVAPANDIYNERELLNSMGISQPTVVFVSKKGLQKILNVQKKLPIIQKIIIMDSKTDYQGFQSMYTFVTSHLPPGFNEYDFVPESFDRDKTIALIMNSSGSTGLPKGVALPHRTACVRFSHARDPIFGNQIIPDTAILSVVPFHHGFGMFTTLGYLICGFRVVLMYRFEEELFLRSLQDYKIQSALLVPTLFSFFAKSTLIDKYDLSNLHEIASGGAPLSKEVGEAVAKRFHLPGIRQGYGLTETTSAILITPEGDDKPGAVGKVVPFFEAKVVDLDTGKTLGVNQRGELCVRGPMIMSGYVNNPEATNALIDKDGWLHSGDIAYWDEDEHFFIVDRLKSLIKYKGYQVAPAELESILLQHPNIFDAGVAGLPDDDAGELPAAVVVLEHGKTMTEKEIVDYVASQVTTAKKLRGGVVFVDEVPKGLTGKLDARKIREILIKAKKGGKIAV
T1 sequence (Q92915 1-252 isoform Q92915-2): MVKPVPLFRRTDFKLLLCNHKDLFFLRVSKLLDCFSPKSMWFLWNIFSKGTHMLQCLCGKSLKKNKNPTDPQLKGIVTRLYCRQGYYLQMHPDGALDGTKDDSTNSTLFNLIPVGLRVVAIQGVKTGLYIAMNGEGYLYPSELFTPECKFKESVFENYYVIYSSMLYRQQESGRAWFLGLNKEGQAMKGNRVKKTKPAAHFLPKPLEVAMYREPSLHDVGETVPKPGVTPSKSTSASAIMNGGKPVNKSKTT
T1 sequence (Q9UQD0 1763-1976 limits assumed): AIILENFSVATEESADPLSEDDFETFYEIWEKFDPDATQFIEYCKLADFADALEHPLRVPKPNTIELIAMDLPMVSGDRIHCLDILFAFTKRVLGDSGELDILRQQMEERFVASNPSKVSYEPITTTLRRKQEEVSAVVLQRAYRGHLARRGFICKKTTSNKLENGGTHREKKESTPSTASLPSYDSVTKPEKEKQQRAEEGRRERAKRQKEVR

Row | SMILES | Luciferase Assay % Lum [1, 10] | Luciferase Assay Z-score [1, 11] | Split Luciferase Assay % Lum Set 1 [2, 12] | Split Luciferase Assay %Lum Set 2 [2, 13] | Split Luciferase Assay Z-score Set 1 [2, 14] | Split Luciferase Assay Z-score Set 2 [2, 15] | Split Luciferase Assay %Lum Avg [2, 16] | Toxicity Assay % Fluor ([3]; human, 16 h, 30 µM) | Toxicity Assay Z-score ([3]; human, 16 h, 30 µM) | other results
1 | N#Cc1c(O)c2c(-c3ccc(-c4ccccc4O)cc3)csc2[nH]c1=O [Compound A-769662] | – | – | – | – | – | – | – | – | – | Luciferase Assay % Lum (full-length luciferase counter-screen) [1, 4]: 79.85%; Luciferase Assay Z-score (full-length luciferase counter-screen) [1, 4]: -2.58; Split Luciferase Assay Z-score Set 1 [2, 5]: 1.52; Split Luciferase Assay % Lum Set 1 [2, 6]: 118.82%; Split Luciferase Assay Z-score Set 2 [2, 7]: 1.01; Split Luciferase Assay %Lum Set 2 [2, 8]: 112.35%; Split Luciferase Assay %Lum Avg [2, 9]: 115.59%; Toxicity Assay % Fluor (CTB cell viability fluorescence) [3]: 107.48%; Toxicity Assay Z-score (CTB cell viability) [3]: 1.05
2 | Cc1nc2sccn2c(=O)c1CCN1CCC(=C(c2ccccc2)c2ccc(F)cc2)CC1 [Compound R59022] | – | – | – | – | – | – | – | – | – | Luciferase Assay % Lum (full-length luciferase counter-screen) [1, 4]: 55.65%; Luciferase Assay Z-score (full-length luciferase counter-screen) [1, 4]: -5.68; Split Luciferase Assay Z-score Set 1 [2, 5]: -1.91; Split Luciferase Assay % Lum Set 1 [2, 6]: 76.42%; Split Luciferase Assay Z-score Set 2 [2, 7]: -0.10; Split Luciferase Assay %Lum Set 2 [2, 8]: 98.83%; Split Luciferase Assay %Lum Avg [2, 9]: 87.63%; Toxicity Assay % Fluor (CTB cell viability fluorescence) [3]: 113.72%; Toxicity Assay Z-score (CTB cell viability) [3]: 1.92
3 | C[C@@H](N)[C@H]1CC[C@H](C(=O)Nc2ccncc2)CC1 [Compound Y-27632] | 95.76% | -0.54 | 76.42% | 74.90% | -1.91 | -2.04 | 75.66% | – | – | Toxicity Assay % Fluor [3]: 96.21%; Toxicity Assay Z-score [3]: -0.53
4 | O=P1(N(CCCl)CCCl)NCCCO1 (stereo not drawn) [Cyclophosphamide] | – | – | – | – | – | – | – | – | – | Luciferase Assay % Lum [1]: 101.62%; Luciferase Assay Z-score [1]: 0.21; Split Luciferase Assay % Lum Set 1 [2]: 107.95%; Split Luciferase Assay %Lum Avg [2]: 112.75%; Split Luciferase Assay %Lum Set 2 [2]: 117.56%; Split Luciferase Assay Z-score Set 1 [2]: 0.64; Split Luciferase Assay Z-score Set 2 [2]: 1.43; Toxicity Assay % Fluor ([3]; human): 98.87%; Toxicity Assay Z-score ([3]; human): -0.16
5 | Cc1nc(Nc2ncc(C(=O)Nc3c(C)cccc3Cl)s2)cc(N2CCN(CCO)CC2)n1 [DASATINIB] | 82.88% | -2.19 | 38.37% | 65.54% | -4.98 | -2.80 | 51.96% | 83.83% | -2.26 | –
6 | COc1cc2c(cc1OC)[C@@H]1C(=O)c3ccc4c(c3O[C@@H]1CO2)C=CC(C)(C)O4 [DEGUELIN] | 66.30% | -4.32 | 27.50% | 26.01% | -5.86 | -6.02 | 26.76% | – | – | Toxicity Assay % Fluor ([3]; human): 100.58%; Toxicity Assay Z-score ([3]; human): 0.08
7 | Cc1nc2c(c(=O)[nH]1)CSCC2 [DR 2313] | – | – | – | – | – | – | – | – | – | Luciferase Assay % Lum (full-length luciferase counter-screen) [1, 4]: 93.50%; Luciferase Assay Z-score (full-length luciferase counter-screen) [1, 4]: -0.83; Split Luciferase Assay Z-score Set 1 [2, 5]: -1.11; Split Luciferase Assay % Lum Set 1 [2, 6]: 86.21%; Split Luciferase Assay Z-score Set 2 [2, 7]: -0.26; Split Luciferase Assay %Lum Set 2 [2, 8]: 96.75%; Split Luciferase Assay %Lum Avg [2, 9]: 91.48%; Toxicity Assay % Fluor (CTB cell viability fluorescence) [3]: 106.28%; Toxicity Assay Z-score (CTB cell viability) [3]: 0.88
8 | CC(C)(C)c1nc(-c2cccc(NS(=O)(=O)c3c(F)cccc3F)c2F)c(-c2ccnc(N)n2)s1.CS(=O)(=O)O [Dabrafenib mesylate] | 100.50% | 0.06 | 126.43% | 121.72% | 2.14 | 1.77 | 124.07% | – | – | Toxicity Assay % Fluor [3]: 93.50%; Toxicity Assay Z-score [3]: -0.91
9 | Cc1c2oc3c(C)ccc(C(=O)N[C@@H]4C(=O)N[C@H](C(C)C)C(=O)N5CCC[C@H]5C(=O)N(C)CC(=O)N(C)[C@@H](C(C)C)C(=O)O[C@@H]4C)c3nc-2c(C(=O)N[C@@H]2C(=O)N[C@H](C(C)C)C(=O)N3CCC[C@H]3C(=O)N(C)CC(=O)N(C)[C@@H](C(C)C)C(=O)O[C@@H]2C)c(N)c1=O [Dactinomycin] (I: T[dV]P[Sar][NMeV] / II: T[dV]P[Sar][NMeV]; ester I:1-I:C, II:1-II:C; linker I:N-II:N via Actinocin(9to1)) | 95.88% | -0.53 | – | 65.54% | – | -2.80 | 62.83% | – | – | Toxicity Assay % Fluor ([3]; human): 93.25%; Toxicity Assay Z-score ([3]; human): -0.94
10 | Cc1nc(Nc2ncc(C(=O)Nc3c(C)cccc3Cl)s2)cc(N2CCN(CCO)CC2)n1 [Dasatinib] | 84.22% | -2.02 | 92.73% | 79.06% | -0.59 | -1.70 | 85.90% | – | – | Toxicity Assay % Fluor [3]: 94.47%; Toxicity Assay Z-score [3]: -0.77
11 | COc1cccc2c1C(=O)c1c(O)c3c(c(O)c1C2=O)C[C@@](O)(C(C)=O)C[C@@H]3O[C@H]1C[C@H](N)[C@H](O)[C@H](C)O1 [Daunorubicin hydrochloride] | 65.12% | -4.47 | 48.16% | 61.38% | -4.19 | -3.14 | 54.77% | 81.24% | -2.62 | –
12 | COc1cccc2c1C(=O)c1c(O)c3c(c(O)c1C2=O)C[C@@](O)(C(=O)CO)C[C@@H]3O[C@H]1C[C@H](N)[C@H](O)[C@H](C)O1 [Doxorubicin hydrochloride] | 78.74% | – | 49.25% | 58.26% | -4.10 | -3.40 | 53.75% | 94.10% | -0.82 | –
13 | CN(NC(=O)CC(=O)NN(C)C(=S)c1ccccc1)C(=S)c1ccccc1 [ELESCLOMOL] | 99.01% | -0.13 | 30.77% | 35.37% | -5.60 | -5.26 | 33.07% | 74.49% | -3.57 | –
14 | Cn1cc(C2=C(c3cn(C4CCN(Cc5ccccn5)CC4)c4ccccc34)C(=O)NC2=O)c2ccccc21 [ENZASTAURIN] | 90.70% | -1.19 | 84.03% | 96.75% | -1.29 | -0.26 | 90.39% | 95.12% | -0.68 | –
15 | CNC(=O)c1ccc(N2C(=S)N(c3ccc(C#N)c(C(F)(F)F)c3)C(=O)C2(C)C)cc1F [Enzalutamide] | – | – | 94.90% | 98.83% | -0.41 | -0.10 | 96.87% | 90.81% | -1.28 | Luciferase Assay % Lum [1]: 80.08%; Luciferase Assay Z-score [1]: -2.55
16 | COc1cccc2c1C(=O)c1c(O)c3c(c(O)c1C2=O)C[C@@](O)(C(=O)CO)C[C@@H]3O[C@H]1C[C@H](N)[C@@H](O)[C@H](C)O1 [Epirubicin hydrochloride] | 76.16% | -3.05 | 44.90% | 45.77% | -4.45 | -4.41 | 45.34% | 86.21% | -1.93 | –
17 | C[C@]12CC[C@@H]3c4ccc(OC(=O)N(CCCl)CCCl)cc4CC[C@H]3[C@@H]1CC[C@@H]2OP(=O)(O)O [Estramustine phosphate sodium] | – | – | – | – | – | – | – | – | – | Luciferase Assay % Lum [1]: 86.35%; Luciferase Assay Z-score [1]: -1.75; Split Luciferase Assay % Lum Set 1 [2]: 26.42%; Split Luciferase Assay %Lum Avg [2]: 32.45%; Split Luciferase Assay %Lum Set 2 [2]: 38.49%; Split Luciferase Assay Z-score Set 1 [2]: -5.95; Split Luciferase Assay Z-score Set 2 [2]: -5.00; Toxicity Assay % Fluor ([3]; human): 92.97%; Toxicity Assay Z-score ([3]; human): -0.98
